The target in data set [1] is T1, GIST430/654 cell line expressing mutated constitutively active cKIT receptor tyrosine kinase (Δ560-576 deletion and V654A point mutation) (Homo sapiens, UniProt P10721, DEL560-576/V654A).
T1 construct: endogenous in cells; host or cells: GIST430/654 cells
The experiment in a line: Cellular cKIT autophosphorylation (phospho-Y307-cKIT, Luminex bead assay) in GIST430/654 cells. The class given is cell-based. The settings on record: compounds 45 min, read-out: GIST 430/654 IC50. Summed up: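 GIST430 (Δ560-576) and imatinib-resistant GIST430/654 (plus V654A; grown with 100 nM imatinib) cells were plated in IMDM/15% FCS and treated next day with serially diluted compound for 45 min. Lysates were captured on anti-total-cKIT Luminex beads overnight at 4 °C and probed for phospho-Y307. IC50 was taken from percent of 0.3% DMSO control.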

The target in the next data set is T2, c-Kit(V654A) (Homo sapiens, UniProt P10721, V654A).
T2 construct: recombinant human c-Kit, amino acids 544-end containing the V654A mutation; GST (N)
T2 sequence (P10721 544-976 V654A): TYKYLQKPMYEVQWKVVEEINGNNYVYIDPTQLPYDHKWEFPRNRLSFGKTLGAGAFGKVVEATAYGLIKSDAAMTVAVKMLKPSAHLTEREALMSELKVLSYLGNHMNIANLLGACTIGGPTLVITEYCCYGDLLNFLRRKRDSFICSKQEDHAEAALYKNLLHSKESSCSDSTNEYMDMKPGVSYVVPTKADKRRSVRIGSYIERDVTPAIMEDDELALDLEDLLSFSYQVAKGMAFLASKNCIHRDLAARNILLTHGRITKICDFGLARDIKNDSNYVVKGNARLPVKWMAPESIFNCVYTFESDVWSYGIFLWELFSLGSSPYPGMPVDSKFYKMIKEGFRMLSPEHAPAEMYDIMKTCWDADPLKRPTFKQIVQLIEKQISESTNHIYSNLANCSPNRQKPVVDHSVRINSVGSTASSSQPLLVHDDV
The experiment in a line: c-Kit(V654A) assay (33P-ATP filter binding kinase assay). The class given is biochemical. The settings on record: recombinant human c-Kit aa 544-end V654A, ATP 200 μM. Summed up:
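Radiometric filter-binding read-out: substrate 33P incorporation counted by scintillation after P30 filtermat washes in 75 mM phosphoric acid and methanol. Enzyme: N-GST recombinant human c-Kit aa 544-end carrying V654A.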

Data set [2] in a line: Determination of Efflux-Ratio (ER) in Caco-2 cells. The following applies: human, Caco-2, pH 7.4.

A value given as a limit tells only on which side of the number the result lay.

T1 sequence (P10721 with tags, fused parts or gaps DEL560-576/V654A): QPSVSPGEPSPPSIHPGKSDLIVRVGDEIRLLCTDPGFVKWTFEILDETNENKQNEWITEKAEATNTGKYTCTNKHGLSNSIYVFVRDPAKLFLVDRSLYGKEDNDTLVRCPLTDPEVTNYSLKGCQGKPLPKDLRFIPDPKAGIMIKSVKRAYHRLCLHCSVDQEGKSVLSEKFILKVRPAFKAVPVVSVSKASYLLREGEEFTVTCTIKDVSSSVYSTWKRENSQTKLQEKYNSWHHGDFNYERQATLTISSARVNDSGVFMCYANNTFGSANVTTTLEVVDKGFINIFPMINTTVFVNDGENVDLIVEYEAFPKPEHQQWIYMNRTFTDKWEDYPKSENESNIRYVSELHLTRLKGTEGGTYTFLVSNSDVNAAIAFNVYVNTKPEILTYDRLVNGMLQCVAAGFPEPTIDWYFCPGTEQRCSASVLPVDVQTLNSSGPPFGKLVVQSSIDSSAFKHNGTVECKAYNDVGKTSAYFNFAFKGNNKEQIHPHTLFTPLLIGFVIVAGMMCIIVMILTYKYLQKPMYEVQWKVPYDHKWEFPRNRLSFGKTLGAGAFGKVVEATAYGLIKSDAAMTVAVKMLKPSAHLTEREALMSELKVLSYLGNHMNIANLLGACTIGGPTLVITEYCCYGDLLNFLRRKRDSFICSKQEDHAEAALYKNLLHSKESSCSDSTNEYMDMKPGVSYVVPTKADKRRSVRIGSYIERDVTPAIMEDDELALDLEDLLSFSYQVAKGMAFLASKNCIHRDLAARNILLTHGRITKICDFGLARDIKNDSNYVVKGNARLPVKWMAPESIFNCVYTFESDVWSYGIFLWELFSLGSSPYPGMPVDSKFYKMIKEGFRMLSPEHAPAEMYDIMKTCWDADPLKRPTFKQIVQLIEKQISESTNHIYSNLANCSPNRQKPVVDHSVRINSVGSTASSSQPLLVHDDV

For `COC1(C)CCN(CCOc2ccn3c(-c4cc(NCc5ccc(-c6cnn(C)c6)cc5)ncn4)cnc3c2)CC1` [A220, (6-{7-[2-(4-methoxy-4-methyl-piperidin-1-yl)-ethoxy]-imidazo[1,2-a]pyridin-3-yl}-pyrimidin-4-yl)-[4-(1-methyl-1H-pyrazol-4-yl)-benzyl]-amine], the figures for the IC50 (in data set [1]; at c-Kit(V654A)) were 140 nM and 11 nM, respectively. Moreover, the efflux ratio (as a rule, a quotient of directional permeabilities that is used to spot active efflux) at 2 h, 1 μM in data set [2] was under 15.
As to `Cn1cc(-c2ccc(CNc3cc(-c4cnc5cc(OCCN6CCC(F)(F)CC6)ccn45)ncn3)cc2)cn1` [A202, (6-{7-[2-(4,4-difluoro-piperidin-1-yl)-ethoxy]-imidazo[1,2-a]pyridin-3-yl}-pyrimidin-4-yl)-[4-(1-methyl-1H-pyrazol-4-yl)-benzyl]-amine], the IC50 in data set [1] is 200 nM; at c-Kit(V654A), 17 nM. For the same compound, the efflux ratio at 2 h, 1 μM in data set [2] is under 15.
For `Cn1cc(-c2ccc(CNc3cc(-c4cnc5cc(-c6cnn(C)c6)ccn45)ncn3)cc2)cn1` [A226, 6-[7-(1-methyl-1H-pyrazol-4-yl)imidazo[1,2-a]pyridin-3-yl]-N-{[4-(1-methyl-1H-pyrazol-4-yl)phenyl]methyl}pyrimidin-4-amine], the IC50 in data set [1] was determined as 51 nM; on c-Kit(V654A), 4.2 nM. In data set [2], the efflux ratio at 2 h, 1 μM is under 15.
For `Cn1cc(-c2ccc(CNc3cc(-c4cnc5cc(OCCN6CCOC(F)(F)C6)ccn45)ncn3)cc2)cn1` [A214, (6-{7-[2-(2,2-difluoro-morpholin-4-yl)-ethoxy]-imidazo[1,2-a]pyridin-3-yl}-pyrimidin-4-yl)-[4-(1-methyl-1H-pyrazol-4-yl)-benzyl]-amine] the same measures were 180 nM, 21 nM and under 15.
Regarding `Cn1cc(-c2ccc(CNc3cc(-c4cnc5cc(OCCN6CCC(C)(C#N)CC6)ccn45)ncn3)cc2)cn1` [A222, 4-methyl-1-[2-(3-{6-[4-(1-methyl-1H-pyrazol-4-yl)-benzylamino]-pyrimidin-4-yl}-imidazo[1,2-a]pyridin-7-yloxy)-ethyl]-piperidine-4-carbonitrile], the values for the IC50 (in data set [1]; on c-Kit(V654A)) were 93 nM and 17 nM, respectively. In addition, in data set [2], the efflux ratio at 2 h, 1 μM is under 15.
For `Cn1ncc(-c2ccc(CNc3cc(-c4cnc5cc(OCC6CCN(CC#N)CC6)ccn45)ncn3)cc2)n1` [A189, [4-(3-{6-[4-(2-methyl-2H-[1,2,3]triazol-4-yl)-benzylamino]-pyrimidin-4-yl}-imidazo[1,2-a]pyridin-7-yloxymethyl)-piperidin-1-yl]-acetonitrile] the same measures were 160 nM, 9.8 nM and under 15.
The matching figures for `Cn1cc(-c2ccc(CNc3cc(-c4cnc5cc(N6CC7(COC7)C6)ccn45)ncn3)cc2)cn1` [A246, [4-(1-methyl-1H-pyrazol-4-yl)-benzyl]-{6-[7-(2-oxa-6-aza-spiro[3.3]hept-6-yl)-imidazo[1,2-a]pyridin-3-yl]-pyrimidin-4-yl}-amine]: 38 nM, 8 nM and under 15.
On to `CN1CCC(COc2ccn3c(-c4cc(NCc5ccc(-n6ccnn6)cc5)ncn4)cnc3c2)CC1` [A80, {6-[7-(1-methyl-piperidin-4-ylmethoxy)-imidazo[1,2-a]pyridin-3-yl]-pyrimidin-4-yl}-(4-[1,2,3]triazol-1-yl-benzyl)-amine], for which the figures for the IC50 (in data set [1]; on c-Kit(V654A)) were 38 nM and 3.4 nM, respectively. The efflux ratio at 2 h, 1 μM in data set [2] was over 50.
The matching figures for `Cn1cc(-c2ccc(CNc3cc(-c4cnc5cc(OCCN6CCn7nccc7C6)ccn45)ncn3)cc2)cn1` [A216, (6-{7-[2-(6,7-dihydro-4H-pyrazolo[1,5-a]pyrazin-5-yl)-ethoxy]-imidazo[1,2-a]pyridin-3-yl}-pyrimidin-4-yl)-[4-(1-methyl-1H-pyrazol-4-yl)-benzyl]-amine]: 130 nM, 8.2 nM and under 15.
With `Cn1cc(-c2ccc(CNc3cc(-c4cnc5cc(N6CCC(O)C6)ccn45)ncn3)cc2)cn1` (stereo not drawn) [A245, 1-(3-{6-[4-(1-methyl-1H-pyrazol-4-yl)-benzylamino]-pyrimidin-4-yl}-imidazo[1,2-a]pyridin-7-yl)-pyrrolidin-3-ol], the results for the IC50 (in data set [1]; on c-Kit(V654A)) were 84 nM and 13 nM, respectively. Further, in data set [2], the efflux ratio at 2 h, 1 μM is over 50.
For `Cn1cc(-c2ccc(CNc3cc(-c4cnc5cc(OCC6CN(C7COC7)C6)ccn45)ncn3)cc2)cn1` [A183, N-{[4-(1-methyl-1H-pyrazol-4-yl)phenyl]methyl}-6-(7-{[1-(oxetan-3-yl)azetidin-3-yl]methoxy}imidazo[1,2-a]pyridin-3-yl)pyrimidin-4-amine], the IC50 was 27 nM in data set [1] and 7.7 nM on c-Kit(V654A). The efflux ratio at 2 h, 1 μM in data set [2] is under 15.
For the compound `Cn1cc(-c2ccc(CNc3cc(-c4cnc5cc(OCCN6CCC(F)(F)C6)ccn45)ncn3)cc2)cn1` [A77, 6-{7-[2-(3,3-difluoropyrrolidin-1-yl)ethoxy]imidazo[1,2-a]pyridin-3-yl}-N-{[4-(1-methyl-1H-pyrazol-4-yl)phenyl]methyl}pyrimidin-4-amine], the IC50 in data set [1] was 40 nM; on c-Kit(V654A) it was 14 nM. Moreover, in data set [2], the efflux ratio at 2 h, 1 μM was under 15.
On to `Cn1cc(-c2ccc(CNc3cc(-c4cnc5cc(OCCC(C)(C)N)ccn45)ncn3)cc2)cn1` [A223, {6-[7-(3-amino-3-methyl-butoxy)-imidazo[1,2-a]pyridin-3-yl]-pyrimidin-4-yl}-[4-(1-methyl-1H-pyrazol-4-yl)-benzyl]-amine], for which the IC50 turned out to be 190 nM in data set [1] and 11 nM at c-Kit(V654A). Also, in data set [2], the efflux ratio at 2 h, 1 μM is over 50.
As to `COc1ccn2c(-c3cc(NCc4ccc(-c5cnn(CC6CC6)c5)cc4)ncn3)cnc2c1` [A21, [4-(1-cyclopropylmethyl-1H-pyrazol-4-yl)-benzyl]-[6-(7-methoxy-imidazo[1,2-a]pyridin-3-yl)-pyrimidin-4-yl]-amine], the IC50 came to 58 nM in data set [1] and 4.8 nM on c-Kit(V654A). In addition, the efflux ratio at 2 h, 1 μM in data set [2] is under 15.
As to `Cn1cc(-c2ccc(CNc3cc(-c4cnc5cc(OCCN6CC(F)C6)ccn45)ncn3)cc2)cn1` [A140, 6-{7-[2-(3-fluoroazetidin-1-yl)ethoxy]imidazo[1,2-a]pyridin-3-yl}-N-{[4-(1-methyl-1H-pyrazol-4-yl)phenyl]methyl}pyrimidin-4-amine], the IC50 in data set [1] amounted to 26 nM; at c-Kit(V654A) it was 11 nM. Moreover, in data set [2], the efflux ratio at 2 h, 1 μM was under 15.
For `Cn1cc(-c2ccc(CNc3cc(-c4cnc5cc(OCC6CCN(CC(F)F)CC6)ccn45)ncn3)cc2)cn1` [A192, (6-{7-[1-(2,2-difluoro-ethyl)-piperidin-4-ylmethoxy]-imidazo[1,2-a]pyridin-3-yl}-pyrimidin-4-yl)-[4-(1-methyl-1H-pyrazol-4-yl)-benzyl]-amine] the same measures were 67 nM, 28 nM and under 15.
The matching figures for `Cc1nc2n(n1)CCN(CCOc1ccn3c(-c4cc(NCc5ccc(-c6cnn(C)c6)cc5)ncn4)cnc3c1)C2` [A204, (6-{7-[2-(2-methyl-5,6-dihydro-8H-[1,2,4]triazolo[1,5-a]pyrazin-7-yl)-ethoxy]-imidazo[1,2-a]pyridin-3-yl}-pyrimidin-4-yl)-[4-(1-methyl-1H-pyrazol-4-yl)-benzyl]-amine]: 170 nM, 12 nM and 15 to 50.
The matching figures for `COc1ccn2c(-c3cc(NCc4ccc(-c5noc(C)n5)cc4)ncn3)cnc2c1` [A26, 6-{7-methoxyimidazo[1,2-a]pyridin-3-yl}-N-{[4-(5-methyl-1,2,4-oxadiazol-3-yl)phenyl]methyl}pyrimidin-4-amine]: 130 nM, 8.6 nM and under 15.
On to `Cn1cc(-c2ccc(CNc3cc(-c4cnc5cc(OCCOCCO)ccn45)ncn3)cc2)cn1` [A234, 2-[2-(3-{6-[4-(1-methyl-1H-pyrazol-4-yl)-benzylamino]-pyrimidin-4-yl}-imidazo[1,2-a]pyridin-7-yloxy)-ethoxy]-ethanol], for which the IC50 in data set [1] came to 70 nM; on c-Kit(V654A), 8.5 nM. Further, the efflux ratio at 2 h, 1 μM in data set [2] was under 15.
Consider `Cn1cc(-c2ccc(CNc3cc(-c4cnc5cc(OCCN6CC(S(C)(=O)=O)C6)ccn45)ncn3)cc2)cn1` [A215, (6-{7-[2-(3-methanesulfonyl-azetidin-1-yl)-ethoxy]-imidazo[1,2-a]pyridin-3-yl}-pyrimidin-4-yl)-[4-(1-methyl-1H-pyrazol-4-yl)-benzyl]-amine], for which the values for the IC50 (in data set [1]; at c-Kit(V654A)) were 120 nM and 10 nM, respectively. Also, in data set [2], the efflux ratio at 2 h, 1 μM is over 50.
For `CN1CCC(Oc2ccn3c(-c4cc(NCc5ccc(-c6cnn(C)c6)cc5)ncn4)cnc3c2)CC1` [A63, {6-[7-(1-methyl-piperidin-4-yloxy)-imidazo[1,2-a]pyridin-3-yl]-pyrimidin-4-yl}-[4-(1-methyl-1H-pyrazol-4-yl)-benzyl]-amine] the same measures were 84 nM, 12 nM and under 15.
For the compound `OCCOc1ccn2c(-c3cc(NCc4ccc(-c5cocn5)cc4)ncn3)cnc2c1` [A251, 2-{3-[6-(4-oxazol-4-yl-benzylamino)-pyrimidin-4-yl]-imidazo[1,2-a]pyridin-7-yloxy}-ethanol], the IC50 in data set [1] worked out at 44 nM; at c-Kit(V654A) it was 2 nM. For the same compound, the efflux ratio at 2 h, 1 μM in data set [2] was under 15.

The record behind these values is patent US12655142B2 (Merck Patent GmbH, priority 2019, dated 2026).
